Results: patent US20230263822A1, “MODULATION OF FACTOR 11 EXPRESSION” (Ionis Pharmaceuticals, Inc., priority 2008, published 2023)
Strand notation (5' to 3'): a small letter for the sugar, then the base; units joined by * are phosphorothioate-linked, units joined directly phosphodiester-linked; [ ] holds rarer units or linkages, { } end groups; capitals alone tell only the bases. e = 2'-O-(2-methoxyethyl) (MOE); [5mC] = 5-methylcytosine; d = 2'-deoxy (DNA)

Assay: Tolerability in CD1 mice: body weight and organ weight (Example 43)
Assay type: in vivo
Settings: 50 mg/kg s.c. twice per week for 6 weeks, end of study

Substance | Change in Kidney weight | Change in Liver weight | Change in Spleen weight
ISIS 449707: 3-8-3, 4-8-4, 2-10-2, 3-10-3 or 4-10-4 MOE microwalk gapmer (Table 46) (antisense e[5mC]*eA*e[5mC]*eA*dG*dT*dT*dT*d[5mC]*dT*dG*dG*e[5mC]*eA*eG*eG) | −5% | +11% | +63%
ISIS 449708: 3-8-3, 4-8-4, 2-10-2, 3-10-3 or 4-10-4 MOE microwalk gapmer (Table 46) (antisense eA*e[5mC]*eA*dG*dT*dT*dT*d[5mC]*dT*dG*dG*e[5mC]*eA*eG) | 0% | +17% | +66%
ISIS 449709: 3-8-3, 4-8-4, 2-10-2, 3-10-3 or 4-10-4 MOE microwalk gapmer (Table 46) (antisense eG*e[5mC]*eA*e[5mC]*dA*dG*dT*dT*dT*d[5mC]*dT*dG*dG*d[5mC]*eA*eG*eG*e[5mC]) | −14% | +15% | +62%
ISIS 449710: 3-8-3, 4-8-4, 2-10-2, 3-10-3 or 4-10-4 MOE microwalk gapmer (Table 46) (antisense e[5mC]*eA*e[5mC]*dA*dG*dT*dT*dT*d[5mC]*dT*dG*dG*d[5mC]*eA*eG*eG) | −7% | +6% | +43%
ISIS 449711: 3-8-3, 4-8-4, 2-10-2, 3-10-3 or 4-10-4 MOE microwalk gapmer (Table 46) (antisense eA*e[5mC]*dA*dG*dT*dT*dT*d[5mC]*dT*dG*dG*d[5mC]*eA*eG) | −12% | +18% | +63%
